These results are taken from US7432107B2, “Cardiac hormones for assessing cardiovascular risk” (Roche Diagnostics Operations, Inc., priority 2005, dated 2008).

The conditions of data set [1]: cited from earlier work.
Details of data set [2]: species or system patients. The note with it: human, in vivo, 24 weeks. The protocol:
NT-proBNP was measured in baseline serum samples from 433 patients entering a prospective study, designed primarily to define the therapeutic effect of a novel metallo-proteinase inhibitor in osteoarthritis (OA). Cardiovascular adverse events (CV-AEs) were monitored and related to the concomitant use of cox-2 inhibitors or NSAIDs or prostaglandin metabolism influencing steroids. In a retrospective analysis the question was evaluated whether CV AEs in patients receiving anti-inflammatory drugs could have been predicted from elevated NT-proBNP values. […]
Permitted rescue anti-inflammatory drugs including cox-2 inhibitors and NSAIDs or steroids for this trial were aspirin, diclofenac sodium, diflunisal, etodolac, fenoprofen, ibuprofen, ketoprofen, naproxen, nabumetone, oxaprozin, piroxicam, sodium salicylate, choline magnesium salicylate, celecoxib, rofecoxib or tolmetin. […] Patients were not enquired actively for the occurrence of angina pectoris, signs or symptoms of congestive heart failure, or arterial hypertension, nor was the ECG routinely evaluated for the occurrence of new Q-waves or new bundle branch block. […]

The conditions of data set [3]: cited from earlier work. The source holds these as a separate data set.
The conditions of data set [4]: 48 hours at room temperature or at 4° Celsius; cited from earlier work.

In the case of `CS(=O)(=O)c1ccc(C2=C(c3ccccc3)C(=O)OC2)cc1` [Rofecoxib], in data set [1] (25 mg compared with placebo, after 18 months of follow-up), the “additional cardiovascular incidents (myocardial infarction, stroke)” value was 16 per 1,000 treated patients. The blood pressure levels entry in data set [1] (25 mg versus placebo, early post-observation phase) is reported as “higher blood pressure levels”. Also, the “rise in the rate of serious thromboembolic incidents” value in data set [1] (APPROVE study) is 3.9 times. As to `CC(=O)Nc1ccc(O)cc1` [acetaminophen], in data set [2], the “Hazard Ratio of covariate (takes drug at baseline), time to CV adverse events” value amounted to 0.653. For the molecule “BNP: active natriuretic hormone of 32 amino acids, cleaved from proBNP”, the in-vivo half-life in data set [3] (in vivo) was 0.333 h. Also, in data set [4], the “concentration loss on storage” value is “at least 20%”.

B1: NT-proBNP: N-terminal pro peptide of 76 amino acids, cleaved from proBNP; inactive counterpart of BNP (protein, UniProt P16860 27-102, looked up)
NT-proBNP: HPLGSPGSASDLETSGLQEQRNHLQGKLSELQVEQTSLEPLQESPRPTGVWKSREVATEGIRGHRKMVLYTLRAPR
modifications: NT-proBNP
For the molecule B1, the “in-vivo half-life, longer than that of BNP” value in data set [3] (difference to BNP) is 2 h.
